Patent US11000033B2, “Ketone or oxime compound, and herbicide” (NISSAN CHEMICAL CORPORATION, priority 2014, dated 2021)

Experiments:
Assay type in all cases: in vivo
beet [1] = experiment: Test Example 4: effect on crop by soil treatment (symbol f); conditions: application herbicide amount 320 g/ha
Procedure, shortened: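 Diluvial soil (sterilized) in boxes; seeds placed spot-wise alongside weed species; ~1.5 cm covering soil. Greenhouse, 25–30° C.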

[2] = system: Echinochloa crus-galli var. crus-galli; experiment: Test Example 3: herbicidal effect by foliage application, Wagner pot (symbol H); conditions: application herbicide amount 320 g/ha
Procedure, shortened: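 Rating at 3 weeks post-spray, by defined criteria. Treatment: emulsion diluted with water to a predetermined amount, applied evenly to foliage of 14-day-old plants raised in alluvial soil flooded 0.1–0.5 cm deep at 25–30 °C, rice co-sown.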

Abutilon theophrasti [3] = experiment: Test Example 5: herbicidal effect by foliage application, plastic box (symbol M); conditions: 320 g/ha, 3 weeks after application
Procedure, shortened: (§1)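 Herbicide, formulated as an emulsion and diluted in water, is sprayed onto the aerial parts of 14-day seedlings. These were grown at 25° C. to 30° C. in sterilized diluvial soil; effects are graded after 3 weeks.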

Digitaria ciliaris [4] = experiment: Test Example 4: herbicidal effect by soil treatment (symbol F); conditions: application herbicide amount 320 g/ha
Procedure, shortened: (§2)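 Seeds were sown in sterilized diluvial soil, covered with about 1.5 cm of soil, and the soil surface was sprayed with a water-diluted emulsion of the compound at a predetermined rate. Plants grew in a greenhouse at 25° C. to 30° C.; effects were scored visually 3 weeks after application.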

soybean = experiment: Test Example 5: effect on crop by foliage application, plastic box (symbol d); conditions: 320 g/ha, 3 weeks after application
Procedure, shortened: (§3)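 Diluvial soil, sterilized and boxed (21 × 13 × 7 cm), received spot-sown seed covered by about 1.5 cm soil; plants were then greenhouse-grown at 25–30° C.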

Alopecurus myosuroides = experiment: Test Example 4: herbicidal effect by soil treatment (symbol J); conditions: application herbicide amount 320 g/ha
Procedure, shortened: as §2

[5] = system: Echinochloa oryzacola Vasing.; experiment: Test Example 2: herbicidal activity, application during weed generation in submerged conditions (symbol A); conditions: Table 23; application herbicide amount 320 g/ha; grade 0-5 by criteria of Test Example 1
Procedure, shortened: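 Flooded-soil post-emergence test: emulsion of compound, water-diluted to target rate, applied to paddy water surface at 1–2 leaf stage of mixed-sown weeds (alluvial soil, 4 cm water, 25–30° C. greenhouse); visual rating 3 weeks after application.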

Amaranthus retroflexus = experiment: Test Example 5: herbicidal effect by foliage application, plastic box (symbol N); conditions: 320 g/ha, 3 weeks after application
Procedure, shortened: as §1

Apera spica-venti = experiment: Test Example 5: herbicidal effect by foliage application, plastic box (symbol L); conditions: 320 g/ha, 3 weeks after application
Procedure, shortened: as §1

Abutilon theophrasti [6] = experiment: Test Example 4: herbicidal effect by soil treatment (symbol M); conditions: application herbicide amount 320 g/ha
Procedure, shortened: as §2

Veronica persica [7] = experiment: Test Example 4: herbicidal effect by soil treatment (symbol R); conditions: application herbicide amount 320 g/ha
Procedure, shortened: as §2

Avena fatua = experiment: Test Example 4: herbicidal effect by soil treatment (symbol I); conditions: application herbicide amount 320 g/ha
Procedure, shortened: as §2

Digitaria ciliaris [8] = experiment: Test Example 5: herbicidal effect by foliage application, plastic box (symbol F); conditions: 320 g/ha, 3 weeks after application
Procedure, shortened: as §1

rice plant = experiment: Test Example 5: effect on crop by foliage application, plastic box (symbol b); conditions: 320 g/ha, 3 weeks after application
Procedure, shortened: as §3

beet [9] = experiment: Test Example 5: effect on crop by foliage application, plastic box (symbol f); conditions: 320 g/ha, 3 weeks after application
Procedure, shortened: as §3

Veronica persica [10] = experiment: Test Example 5: herbicidal effect by foliage application, plastic box (symbol R); conditions: 320 g/ha, 3 weeks after application
Procedure, shortened: as §1

Structure (SMILES)	f (beet) effect on crop grade (beet [1])	herbicidal effect on H (Echinochloa crus-galli var. crus-galli), grade 0-5 [2]	M: Abutilon theophrasti, herbicidal effect grade (Abutilon theophrasti [3])	F (Digitaria ciliaris) herbicidal effect grade (Digitaria ciliaris [4])	d: soybean, effect on crop grade (soybean)	J (Alopecurus myosuroides) herbicidal effect grade (Alopecurus myosuroides)	Herbicidal effect grade, A: Echinochloa oryzacola Vasing. [5]	N: Amaranthus retroflexus, herbicidal effect grade (Amaranthus retroflexus)	L: Apera spica-venti, herbicidal effect grade (Apera spica-venti)	M (Abutilon theophrasti) herbicidal effect grade (Abutilon theophrasti [6])	R (Veronica persica) herbicidal effect grade (Veronica persica [7])	I (Avena fatua) herbicidal effect grade (Avena fatua)	F: Digitaria ciliaris, herbicidal effect grade (Digitaria ciliaris [8])	b: directly sowed rice plant, effect on crop grade (rice plant)	f: beet, effect on crop grade (beet [9])	also measured
CC(CC1CC(O)=C(c2c(C)cc(C)cc2C)C1=O)=NOCC=CCl (stereo not drawn) [1-056]	0 (Herbicidal ratio of 5% or lower (almost no effect))	5 (Herbicidal ratio of 90% or more (almost completely withered))	4 (Herbicidal ratio of 70% or higher and lower than 90%)	5 (Herbicidal ratio of 90% or more (almost completely withered))	4 (Herbicidal ratio of 70% or higher and lower than 90%)	5 (Herbicidal ratio of 90% or more (almost completely withered))	5 (Herbicidal ratio of 90% or more (almost completely withered))	2 (Herbicidal ratio of 20% or higher and lower than 40%)	5 (Herbicidal ratio of 90% or more (almost completely withered))	4 (Herbicidal ratio of 70% or higher and lower than 90%)	0 (Herbicidal ratio of 5% or lower (almost no effect))	3 (Herbicidal ratio of 40% or higher and lower than 70%)	5 (Herbicidal ratio of 90% or more (almost completely withered))	5 (Herbicidal ratio of 90% or more (almost completely withered))	0 (Herbicidal ratio of 5% or lower (almost no effect))	–
CC(CC1CC(O)=C(c2c(C)cc(C)cc2C)C1=O)=NO (stereo not drawn) [1-058]	0 (Herbicidal ratio of 5% or lower (almost no effect))	5 (Herbicidal ratio of 90% or more (almost completely withered))	4 (Herbicidal ratio of 70% or higher and lower than 90%)	5 (Herbicidal ratio of 90% or more (almost completely withered))	3 (Herbicidal ratio of 40% or higher and lower than 70%)	5 (Herbicidal ratio of 90% or more (almost completely withered))	5 (Herbicidal ratio of 90% or more (almost completely withered))	1 (Herbicidal ratio of 5% or higher and lower than 20%)	5 (Herbicidal ratio of 90% or more (almost completely withered))	4 (Herbicidal ratio of 70% or higher and lower than 90%)	0 (Herbicidal ratio of 5% or lower (almost no effect))	1 (Herbicidal ratio of 5% or higher and lower than 20%)	5 (Herbicidal ratio of 90% or more (almost completely withered))	5 (Herbicidal ratio of 90% or more (almost completely withered))	0 (Herbicidal ratio of 5% or lower (almost no effect))	–
CON=C(C)CC1CC(OC(=O)COc2cccc(C#N)c2)=C(c2c(C)cc(C)cc2C)C1=O (stereo not drawn) [1-074]	0 (Herbicidal ratio of 5% or lower (almost no effect))	5 (Herbicidal ratio of 90% or more (almost completely withered))	–	5 (Herbicidal ratio of 90% or more (almost completely withered))	–	5 (Herbicidal ratio of 90% or more (almost completely withered))	5 (Herbicidal ratio of 90% or more (almost completely withered))	–	–	5 (Herbicidal ratio of 90% or more (almost completely withered))	0 (Herbicidal ratio of 5% or lower (almost no effect))	4 (Herbicidal ratio of 70% or higher and lower than 90%)	–	–	–	M: Abutilon theophrasti, herbicidal effect (criteria 0-5) (Abutilon theophrasti [3]): 3 (Herbicidal ratio of 40% or higher and lower than 70%); d: soybean, effect on crop (criteria 0-5) (soybean): 4 (Herbicidal ratio of 70% or higher and lower than 90%); N: Amaranthus retroflexus, herbicidal effect (criteria 0-5) (Amaranthus retroflexus): 0 (Herbicidal ratio of 5% or lower (almost no effect)); L: Apera spica-venti, herbicidal effect (criteria 0-5) (Apera spica-venti): 5 (Herbicidal ratio of 90% or more (almost completely withered)); F: Digitaria ciliaris, herbicidal effect (criteria 0-5) (Digitaria ciliaris [8]): 5 (Herbicidal ratio of 90% or more (almost completely withered)); b: directly sowed rice plant, effect on crop (criteria 0-5) (rice plant): 5 (Herbicidal ratio of 90% or more (almost completely withered)); f: beet, effect on crop (criteria 0-5) (beet [9]): 0 (Herbicidal ratio of 5% or lower (almost no effect))
CC(=O)CC1CC(O)=C(c2c(C)cc(Oc3ccccc3)cc2C)C1=O (stereo not drawn) [7-014]	–	4 (Herbicidal ratio of 70% or higher and lower than 90%)	–	–	–	–	–	–	–	–	–	–	–	–	–	Effect on crop grade, f: beet (beet [1]): 0 (Herbicidal ratio of 5% or lower (almost no effect)); M: Abutilon theophrasti, herbicidal effect (criteria of Test Example 1) (Abutilon theophrasti [3]): 0 (Herbicidal ratio of 5% or lower (almost no effect)); Herbicidal effect grade, F: Digitaria ciliaris (Digitaria ciliaris [4]): 3 (Herbicidal ratio of 40% or higher and lower than 70%); d: soybean, effect on crop (criteria of Test Example 1) (soybean): 0 (Herbicidal ratio of 5% or lower (almost no effect)); Herbicidal effect grade, J: Alopecurus myosuroides (Alopecurus myosuroides): 0 (Herbicidal ratio of 5% or lower (almost no effect)); R: Veronica persica, herbicidal effect (criteria of Test Example 1) (Veronica persica [10]): 0 (Herbicidal ratio of 5% or lower (almost no effect)); N: Amaranthus retroflexus, herbicidal effect (criteria of Test Example 1) (Amaranthus retroflexus): 0 (Herbicidal ratio of 5% or lower (almost no effect)); L: Apera spica-venti, herbicidal effect (criteria of Test Example 1) (Apera spica-venti): 0 (Herbicidal ratio of 5% or lower (almost no effect)); Herbicidal effect grade, M: Abutilon theophrasti (Abutilon theophrasti [6]): 0 (Herbicidal ratio of 5% or lower (almost no effect)); Herbicidal effect grade, R: Veronica persica (Veronica persica [7]): 0 (Herbicidal ratio of 5% or lower (almost no effect)); Herbicidal effect grade, I: Avena fatua (Avena fatua): 0 (Herbicidal ratio of 5% or lower (almost no effect)); F: Digitaria ciliaris, herbicidal effect (criteria of Test Example 1) (Digitaria ciliaris [8]): 5 (Herbicidal ratio of 90% or more (almost completely withered)); b: directly sowed rice plant, effect on crop (criteria of Test Example 1) (rice plant): 3 (Herbicidal ratio of 40% or higher and lower than 70%); f: beet, effect on crop (criteria of Test Example 1) (beet [9]): 0 (Herbicidal ratio of 5% or lower (almost no effect))
